From patent publication US12403137B2, “Compounds and methods of use” (Tango Therapeutics, Inc., priority 2019, dated 2025) come the findings set out here.

Experiment [1] addresses T1, PRMT5 (Homo sapiens, UniProt O14744).
T1 construct: purchased Viva (custom protein)
In words: PRMT5 inhibition assay with MTA as cofactor. The format is biochemical. The settings on record: for IC50: against PRMT5 with MTA as cofactor; for SAM/MTA Ratio: ratio of Ki in the presence of SAM to Ki in the presence of MTA, Ki=IC50/1.5 (SAM), Ki=IC50/13.5 (MTA). The source says: (§1) The Ki values can be calculated from the IC50 values as described in the Examples section. As detailed in the Examples section, for the assay performed in the presence of SAM, IC50=Ki×1.5 (Ki=IC50/1.5). For the assay performed in the presence of MTA, IC50=Ki×13.5 (Ki=IC50/13.5). Column 6 indicates the ratio between the Ki of compounds in the presence of SAM and the Ki of compounds in the presence of MTA

Experiment [2] deals with HAP1 MTAP-deleted cell line. Description: SDMA in-cell western assay, HAP1 MTAP-deleted. The format is cell-based. The settings on record: for IC50: Homo sapiens, HAP1 MTAP-deleted (MTAP-null) cell line; for MTAP Intact/Deleted Ratio: IC50 ratio HAP1 MTAP-intact / HAP1 MTAP-deleted, >=3 fold considered MTAP-selective. Here is the method: (§2) Table 1 also indicates IC50 values in an MTAP-isogenic cell line pair for exemplary compounds in an SDMA in-cell western assay (columns 7-8). HAP1 MTAP-intact is a cell line in which endogenous levels of MTAP are expressed, and HAP1 MTAP-deleted is an MTAP-null cell line. For Table 1, “a*” and “aa*” indicates an IC50 of <1 μM, “b*” and “bb*” indicates an IC50 equal to or greater than 1 μM but less than 10 μM, and “c*” and “cc*” indicates an IC50 of greater than or equal to 10 μM in the HAP1 MTAP-intact and the HAP1 MTAP-deleted assays, respectively. In column 9, “A*” indicates an IC50 ratio greater than or equal to 10 fold between the IC50 in the HAP1 MTAP-intact cell line and the HAP1 MTAP-deleted cell line; “B*” indicates an IC50 ratio greater than or equal to 3 fold but lower than 10 fold between the IC50 in the HAP1 MTAP-intact cell line and the HAP1 MTAP-deleted cell line; “C*” indicates an IC50 ratio of less than 3 fold between the IC50 in the HAP1 MTAP-intact cell line and the HAP1 MTAP-deleted cell line. Compounds with a ratio in the SDMA in-cell western assay of equal to or greater than 3 fold are considered MTAP-selective.

The target of experiment [3] is T1, PRMT5. Description: PRMT5 inhibition assay with SAM as cofactor. The format is biochemical. The settings on record: against PRMT5 in the presence of SAM as cofactor.
Excerpt: as §1

In experiment [4] the test system is HAP1 MTAP-intact cell line. Description: SDMA in-cell western assay, HAP1 MTAP-intact. The settings on record: Homo sapiens. The format is cell-based. Here is the method: as §2
The target of experiment [5] is T1, PRMT5. In words: PRMT5 inhibition assay with no cofactor. The settings on record: against PRMT5 with no cofactor; read-out: No Co-factor IC50. The format is biochemical.

T1 sequence (O14744 whole entry): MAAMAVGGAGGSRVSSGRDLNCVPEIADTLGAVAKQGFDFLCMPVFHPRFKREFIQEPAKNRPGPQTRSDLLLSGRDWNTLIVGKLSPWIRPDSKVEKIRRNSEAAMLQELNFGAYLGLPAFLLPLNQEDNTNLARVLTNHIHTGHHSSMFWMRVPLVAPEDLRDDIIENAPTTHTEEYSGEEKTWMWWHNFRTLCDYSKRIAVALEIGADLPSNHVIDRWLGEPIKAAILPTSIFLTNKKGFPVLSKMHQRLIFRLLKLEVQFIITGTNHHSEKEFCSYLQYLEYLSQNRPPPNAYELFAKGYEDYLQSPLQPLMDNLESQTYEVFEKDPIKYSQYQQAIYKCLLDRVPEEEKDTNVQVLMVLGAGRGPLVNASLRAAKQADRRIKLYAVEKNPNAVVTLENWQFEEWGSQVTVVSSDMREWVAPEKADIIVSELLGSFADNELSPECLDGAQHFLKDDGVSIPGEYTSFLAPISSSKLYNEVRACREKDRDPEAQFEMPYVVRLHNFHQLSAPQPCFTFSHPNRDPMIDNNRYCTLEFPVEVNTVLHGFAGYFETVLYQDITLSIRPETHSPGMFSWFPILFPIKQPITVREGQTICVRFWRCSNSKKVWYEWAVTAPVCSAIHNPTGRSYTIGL
T1 sequence (Q9BQA1 whole entry partner): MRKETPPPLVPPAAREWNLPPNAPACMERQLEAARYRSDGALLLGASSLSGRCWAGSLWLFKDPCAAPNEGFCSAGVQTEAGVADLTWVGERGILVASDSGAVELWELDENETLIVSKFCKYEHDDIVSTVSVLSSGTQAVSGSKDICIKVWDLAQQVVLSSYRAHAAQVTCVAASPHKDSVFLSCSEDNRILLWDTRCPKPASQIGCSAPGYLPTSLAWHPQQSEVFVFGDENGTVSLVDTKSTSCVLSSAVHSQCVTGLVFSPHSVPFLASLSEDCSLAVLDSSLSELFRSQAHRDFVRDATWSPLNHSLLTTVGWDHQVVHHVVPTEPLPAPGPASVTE

With `CCOc1cc(C(=O)N2C3CCC2COC3)ccc1C(=O)NC[C@@H](O)[C@@H]1Cc2ccc(OCc3ccnn3C)cc2CN1` [Compound 5, 4-(3-oxa-8-azabicyclo[3.2.1]octane-8-carbonyl)-2-ethoxy-N—((R)-2-hydroxy-2-((S)-7-((1-methyl-1H-pyrazol-5-yl)methoxy)-1,2,3,4-tetrahydroisoquinolin-3-yl)ethyl)benzamide], the IC50 (commonly the concentration that inhibits the measured activity by half) was 50 to 500 nM in experiment [1]; less than 1000 nM in experiment [2]; 50 to 500 nM in experiment [3]; less than 1000 nM in experiment [4]; 500 to 5000 nM in experiment [5]. In experiment [1], the “SAM/MTA Ratio” value is “A (a Ki ratio greater than or equal to 10 fold between the Ki in the presence of SAM and the Ki in the presence of MTA)”. For the same compound, the “MTAP Intact/Deleted Ratio” value in experiment [2] is “C* (an IC50 ratio of less than 3 fold between the IC50 in the HAP1 MTAP-intact cell line and the HAP1 MTAP-deleted cell line)”.

As to `CCOc1cc(C(=O)N2[C@@H]3CCC[C@H]2COC3)ccc1C(=O)NC[C@@H](O)[C@@H]1Cc2ccc(OCc3ccnn3C)cc2CN1` [Compound 6, 4-((1R,5S)-3-oxa-9-azabicyclo[3.3.1]nonane-9-carbonyl)-2-ethoxy-N—((R)-2-hydroxy-2-((S)-7-((1-methyl-1H-pyrazol-5-yl)methoxy)-1,2,3,4-tetrahydroisoquinolin-3-yl)ethyl)benzamide], the IC50 in experiment [1] was 50 to 500 nM; in experiment [2] it was less than 1000 nM; in experiment [3] it was 50 to 500 nM; in experiment [4], less than 1000 nM; in experiment [5], 500 to 5000 nM. Besides, the “SAM/MTA Ratio” value in experiment [1] is “A (a Ki ratio greater than or equal to 10 fold between the Ki in the presence of SAM and the Ki in the presence of MTA)”. The “MTAP Intact/Deleted Ratio” value in experiment [2] was “C* (an IC50 ratio of less than 3 fold between the IC50 in the HAP1 MTAP-intact cell line and the HAP1 MTAP-deleted cell line)”.

Regarding `O=C(NC[C@@H](O)[C@@H]1Cc2ccc(OCc3cnco3)cc2CN1)c1ccc(C(=O)N2[C@@H]3CCC[C@H]2COC3)cc1` [Compound 7, 4-((1R,5S)-3-oxa-9-azabicyclo[3.3.1]nonane-9-carbonyl)-N—((R)-2-hydroxy-2-((S)-7-(oxazol-5-ylmethoxy)-1,2,3,4-tetrahydroisoquinolin-3-yl)ethyl)benzamide], the IC50 is 50 to 500 nM in experiment [1]; 1000 to 10000 nM in experiment [2]; 50 to 500 nM in experiment [3]; no less than 10000 nM in experiment [4]; 500 to 5000 nM in experiment [5]. Further, in experiment [1], the “SAM/MTA Ratio” value is “A (a Ki ratio greater than or equal to 10 fold between the Ki in the presence of SAM and the Ki in the presence of MTA)”. Also, the “MTAP Intact/Deleted Ratio” value in experiment [2] is “B* (an IC50 ratio greater than or equal to 3 fold but lower than 10 fold between the IC50 in the HAP1 MTAP-intact cell line and the HAP1 MTAP-deleted cell line)”.

`Cc1ncoc1COc1ccc2c(c1)CN[C@H]([C@H](O)CNC(=O)c1ccc(C(=O)N3[C@@H]4CCC[C@H]3COC4)cc1)C2` [Compound 8, 4-((1R,5S)-3-oxa-9-azabicyclo[3.3.1]nonane-9-carbonyl)-N—((R)-2-hydroxy-2-((S)-7-((4-methyloxazol-5-yl)methoxy)-1,2,3,4-tetrahydroisoquinolin-3-yl)ethyl)benzamide]: the IC50 in experiment [1] is 50 to 500 nM; in experiment [2], less than 1000 nM; in experiment [3], 50 to 500 nM; in experiment [4] it was 1000 to 10000 nM; in experiment [5] it was 50 to 500 nM. For the same compound, the “SAM/MTA Ratio” value in experiment [1] was “A (a Ki ratio greater than or equal to 10 fold between the Ki in the presence of SAM and the Ki in the presence of MTA)”. Further, in experiment [2], the “MTAP Intact/Deleted Ratio” value is “A* (an IC50 ratio greater than or equal to 10 fold between the IC50 in the HAP1 MTAP-intact cell line and the HAP1 MTAP-deleted cell line)”.

Take `Cn1nccc1COc1ccc2c(c1)CN[C@H]([C@H](O)CNC(=O)c1ccc(C(=O)N3[C@@H]4CCC[C@H]3COC4)cc1)C2` [Compound 9, 4-((1R,5S)-3-oxa-9-azabicyclo[3.3.1]nonane-9-carbonyl)-N—((R)-2-hydroxy-2-((S)-7-((1-methyl-1H-pyrazol-5-yl)methoxy)-1,2,3,4-tetrahydroisoquinolin-3-yl)ethyl)benzamide]: the 50% inhibitory concentration (IC50) is 50 to 500 nM in experiment [1]; 1000 to 10000 nM in experiment [2]; 50 to 500 nM in experiment [3]; no less than 10000 nM in experiment [4]; 500 to 5000 nM in experiment [5]. The “SAM/MTA Ratio” value in experiment [1] is “A (a Ki ratio greater than or equal to 10 fold between the Ki in the presence of SAM and the Ki in the presence of MTA)”. Besides, in experiment [2], the “MTAP Intact/Deleted Ratio” value was “B* (an IC50 ratio greater than or equal to 3 fold but lower than 10 fold between the IC50 in the HAP1 MTAP-intact cell line and the HAP1 MTAP-deleted cell line)”.

Regarding `CCOc1cc(C(=O)N2[C@@H]3CCC[C@H]2COC3)ccc1C(=O)NC[C@@H](O)[C@@H]1Cc2ccc(OCc3ocnc3C)cc2CN1` [Compound 10, 4-((1R,5S)-3-oxa-9-azabicyclo[3.3.1]nonane-9-carbonyl)-2-ethoxy-N—((R)-2-hydroxy-2-((S)-7-((4-methyloxazol-5-yl)methoxy)-1,2,3,4-tetrahydroisoquinolin-3-yl)ethyl)benzamide], the IC50 is less than 50 nM in experiment [1]; less than 1000 nM in experiment [2]; 50 to 500 nM in experiment [3]; 1000 to 10000 nM in experiment [4]; 50 to 500 nM in experiment [5]. Further, in experiment [1], the “SAM/MTA Ratio” value is “A (a Ki ratio greater than or equal to 10 fold between the Ki in the presence of SAM and the Ki in the presence of MTA)”. Moreover, the “MTAP Intact/Deleted Ratio” value in experiment [2] is “A* (an IC50 ratio greater than or equal to 10 fold between the IC50 in the HAP1 MTAP-intact cell line and the HAP1 MTAP-deleted cell line)”.

Take `CCOc1cc(C(=O)N2C3CCC2COC3)ccc1C(=O)NC[C@@H](O)[C@@H]1Cc2ccc(OCc3cnco3)cc2CN1` [Compound 11, 4-(3-oxa-8-azabicyclo[3.2.1]octane-8-carbonyl)-2-ethoxy-N—((R)-2-hydroxy-2-((S)-7-(oxazol-5-ylmethoxy)-1,2,3,4-tetrahydroisoquinolin-3-yl)ethyl)benzamide]: the IC50 in experiment [1] was 50 to 500 nM; in experiment [2], less than 1000 nM; in experiment [3], 50 to 500 nM; in experiment [4] it was 1000 to 10000 nM; in experiment [5], 500 to 5000 nM. Moreover, in experiment [1], the “SAM/MTA Ratio” value was “A (a Ki ratio greater than or equal to 10 fold between the Ki in the presence of SAM and the Ki in the presence of MTA)”. In addition, the “MTAP Intact/Deleted Ratio” value in experiment [2] is “B* (an IC50 ratio greater than or equal to 3 fold but lower than 10 fold between the IC50 in the HAP1 MTAP-intact cell line and the HAP1 MTAP-deleted cell line)”.

Take `CCOc1cc(C(=O)N2C3CCC2COC3)ccc1C(=O)NC[C@@H](O)[C@@H]1Cc2ccc(OCc3ocnc3C)cc2CN1` [Compound 12, 4-(3-oxa-8-azabicyclo[3.2.1]octane-8-carbonyl)-2-ethoxy-N—((R)-2-hydroxy-2-((S)-7-((4-methyloxazol-5-yl)methoxy)-1,2,3,4-tetrahydroisoquinolin-3-yl)ethyl)benzamide]: the IC50 in experiment [1] is 50 to 500 nM; in experiment [2], less than 1000 nM; in experiment [3], 50 to 500 nM; in experiment [4], less than 1000 nM; in experiment [5], 500 to 5000 nM. Besides, the “SAM/MTA Ratio” value in experiment [1] is “A (a Ki ratio greater than or equal to 10 fold between the Ki in the presence of SAM and the Ki in the presence of MTA)”. In addition, in experiment [2], the “MTAP Intact/Deleted Ratio” value is “B* (an IC50 ratio greater than or equal to 3 fold but lower than 10 fold between the IC50 in the HAP1 MTAP-intact cell line and the HAP1 MTAP-deleted cell line)”.

Take `CCOc1cc(C(=O)N2[C@@H]3CCC[C@H]2COC3)ccc1C(=O)NC[C@@H](O)[C@@H]1Cc2ccc(OCc3cnco3)cc2CN1` [Compound 13, 4-((1R,5S)-3-oxa-9-azabicyclo[3.3.1]nonane-9-carbonyl)-2-ethoxy-N—((R)-2-hydroxy-2-((S)-7-(oxazol-5-ylmethoxy)-1,2,3,4-tetrahydroisoquinolin-3-yl)ethyl)benzamide]: the IC50 in experiment [1] was 50 to 500 nM; in experiment [2] it was less than 1000 nM; in experiment [3], 50 to 500 nM; in experiment [4] it was 1000 to 10000 nM; in experiment [5], 500 to 5000 nM. Besides, the “SAM/MTA Ratio” value in experiment [1] is “A (a Ki ratio greater than or equal to 10 fold between the Ki in the presence of SAM and the Ki in the presence of MTA)”. Further, in experiment [2], the “MTAP Intact/Deleted Ratio” value was “A* (an IC50 ratio greater than or equal to 10 fold between the IC50 in the HAP1 MTAP-intact cell line and the HAP1 MTAP-deleted cell line)”.
